Experimental data reported in the NIST ThermoML archive (doi:10.1016/j.tca.2013.03.025).

Test: xn = mol fraction of the nth substance listed
Details: 101 kPa, Liquid; for viscosity: Concentric cylinders viscometry; for mass density: Vibrating tube method

CCCCOC(=O)C(C)O (stereo not given) [butyl 2-hydroxypropanoate] + CCCO
Details	mass density [kg/m3]	viscosity [mPa·s]
288.15 K, x1 = 0.1	841.535	2.632
288.15 K, x1 = 0.2	869.447	2.786
288.15 K, x1 = 0.3001	892.853	2.979
288.15 K, x1 = 0.3998	912.61	3.19
288.15 K, x1 = 0.5	929.664	3.406
288.15 K, x1 = 0.5999	944.359	3.623
288.15 K, x1 = 0.7001	957.317	3.83
288.15 K, x1 = 0.7996	968.544	4.04
288.15 K, x1 = 0.8998	978.506	4.287
288.15 K, x1 = 1	987.269	4.628
293.15 K, x1 = 0.1	837.385	2.305
293.15 K, x1 = 0.2	865.152	2.431
293.15 K, x1 = 0.3001	888.44	2.584
293.15 K, x1 = 0.3998	908.086	2.751
293.15 K, x1 = 0.5	925.055	2.921
293.15 K, x1 = 0.5999	939.67	3.092
293.15 K, x1 = 0.7001	952.563	3.257
293.15 K, x1 = 0.7996	963.731	3.426
293.15 K, x1 = 0.8998	973.646	3.622
293.15 K, x1 = 1	982.366	3.88
298.15 K, x1 = 0.1	833.207	2.034
298.15 K, x1 = 0.2	860.837	2.147
298.15 K, x1 = 0.3001	883.997	2.277
298.15 K, x1 = 0.3998	903.535	2.413
298.15 K, x1 = 0.5	920.415	2.548
298.15 K, x1 = 0.5999	934.96	2.679
298.15 K, x1 = 0.7001	947.782	2.81
298.15 K, x1 = 0.7996	958.893	2.946
298.15 K, x1 = 0.8998	968.763	3.104
298.15 K, x1 = 1	977.448	3.307
303.15 K, x1 = 0.1	828.994	1.796
303.15 K, x1 = 0.2	856.474	1.888
303.15 K, x1 = 0.3001	879.517	1.994
303.15 K, x1 = 0.3998	898.955	2.105
303.15 K, x1 = 0.5	915.748	2.219
303.15 K, x1 = 0.5999	930.218	2.328
303.15 K, x1 = 0.7001	942.977	2.439
303.15 K, x1 = 0.7996	954.036	2.554
303.15 K, x1 = 0.8998	963.865	2.685
303.15 K, x1 = 1	972.515	2.85
308.15 K, x1 = 0.1	824.744	1.603
308.15 K, x1 = 0.2	852.093	1.679
308.15 K, x1 = 0.3001	875.001	1.769
308.15 K, x1 = 0.3998	894.346	1.862
308.15 K, x1 = 0.5	911.045	1.957
308.15 K, x1 = 0.5999	925.444	2.05
308.15 K, x1 = 0.7001	938.146	2.143
308.15 K, x1 = 0.7996	949.162	2.238
308.15 K, x1 = 0.8998	958.949	2.346
308.15 K, x1 = 1	967.567	2.481
313.15 K, x1 = 0.1	820.45	1.431
313.15 K, x1 = 0.2	847.649	1.5
313.15 K, x1 = 0.3001	870.443	1.579
313.15 K, x1 = 0.3998	889.684	1.659
313.15 K, x1 = 0.5	906.306	1.739
313.15 K, x1 = 0.5999	920.642	1.818
313.15 K, x1 = 0.7001	933.287	1.899
313.15 K, x1 = 0.7996	944.258	1.982
313.15 K, x1 = 0.8998	954.012	2.075
313.15 K, x1 = 1	962.603	2.181
318.15 K, x1 = 0.1	816.108	1.287
318.15 K, x1 = 0.2	843.16	1.349
318.15 K, x1 = 0.3001	865.84	1.417
318.15 K, x1 = 0.3998	884.981	1.486
318.15 K, x1 = 0.5	901.531	1.554
318.15 K, x1 = 0.5999	915.803	1.623
318.15 K, x1 = 0.7001	928.398	1.693
318.15 K, x1 = 0.7996	939.33	1.766
318.15 K, x1 = 0.8998	949.054	1.847
318.15 K, x1 = 1	957.624	1.935
323.15 K, x1 = 0.1	811.714	1.169
323.15 K, x1 = 0.2	838.623	1.222
323.15 K, x1 = 0.3001	861.188	1.28
323.15 K, x1 = 0.3998	880.239	1.339
323.15 K, x1 = 0.5	896.715	1.398
323.15 K, x1 = 0.5999	910.93	1.458
323.15 K, x1 = 0.7001	923.482	1.519
323.15 K, x1 = 0.7996	934.378	1.584
323.15 K, x1 = 0.8998	944.076	1.653
323.15 K, x1 = 1	952.631	1.728
